In ChEMBL document CHEMBL1201862, “PubChem BioAssay data set” (2004):
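Interpolation was linear, between the two tested concentrations surrounding the appropriate level; five concentrations were tested over 48 hours in 96-well plates. Abbreviation: GI50, concentration required for 50% inhibition of growth.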 Active and inactive are the calls of the source. Cut-off read from the data, not from the text of the source: active = GI50 up to about 1.1 µM and inactive = higher.

Legend:
Experiment in all cases: NCI-60 cell line screen, 48 h
LXFL 529 = system: LXFL 529
A498 = system: A498
MOLT-4 = system: MOLT-4
COLO 205 = system: COLO 205
HCT-116 = system: HCT-116
UO-31 = system: UO-31
ACHN = system: ACHN
NCI-H23 = system: NCI-H23
SN12C = system: SN12C
SF-268 = system: SF-268
RPMI-8226 = system: RPMI-8226
HL-60 = system: HL-60
HCC 2998 = system: HCC 2998
SW-620 = system: SW-620
SK-MEL-28 = system: SK-MEL-28
NCI-H460 = system: NCI-H460
A549 = system: A549
DU-145 = system: DU-145
Hs-578T = system: Hs-578T
MDA-MB-231 = system: MDA-MB-231

Measured: GI50

O=C1CCCCC1C1(O)C(=O)Nc2cc(F)ccc21 (stereo not given)
inactive: LXFL 529 > 100 µM | A498 > 100 µM | MOLT-4 > 100 µM | COLO 205 > 100 µM | HCT-116 > 100 µM | UO-31 > 100 µM | ACHN > 100 µM | NCI-H23 > 100 µM | SN12C > 100 µM | SF-268 > 100 µM | RPMI-8226 > 100 µM | HL-60 > 100 µM | HCC 2998 > 100 µM | SW-620 > 100 µM | SK-MEL-28 > 100 µM | NCI-H460 > 100 µM | A549 > 100 µM

Clc1ccc(C2=NOC(C3CCCCC3)C2)cc1 (stereo not given)
inactive: LXFL 529 > 100 µM | A498 > 100 µM | MOLT-4 > 100 µM | COLO 205 > 100 µM | HCT-116 > 100 µM | UO-31 > 100 µM | ACHN > 100 µM | NCI-H23 > 100 µM | SN12C > 100 µM | SF-268 > 100 µM | RPMI-8226 > 100 µM | HL-60 > 100 µM | HCC 2998 > 100 µM | SW-620 > 100 µM | SK-MEL-28 > 100 µM | NCI-H460 > 100 µM | A549 > 100 µM

CC(N)Cc1ccc(Cl)c(Cl)c1 (stereo not given)
inactive: LXFL 529 19.1 µM | A498 45 µM | MOLT-4 29.2 µM | COLO 205 20.3 µM | HCT-116 35.1 µM | UO-31 19.8 µM | ACHN 26.8 µM | NCI-H23 > 95.1 µM | SN12C 30.2 µM | SF-268 71.8 µM | RPMI-8226 34.8 µM | HL-60 18.6 µM | HCC 2998 17.3 µM | SW-620 22 µM | SK-MEL-28 20.4 µM | NCI-H460 30.1 µM | A549 > 100 µM

CCOC(=O)[C@H]1CSC[C@@H](C(=O)OC)N1
inactive: LXFL 529 > 100 µM | A498 > 100 µM | MOLT-4 > 100 µM | COLO 205 > 100 µM | HCT-116 > 100 µM | UO-31 > 100 µM | ACHN > 100 µM | NCI-H23 > 100 µM | SN12C > 100 µM | SF-268 > 100 µM | RPMI-8226 > 100 µM | HL-60 > 100 µM | HCC 2998 > 100 µM | SW-620 > 100 µM | SK-MEL-28 > 100 µM | NCI-H460 > 100 µM | A549 > 100 µM

COc1cc2cc3c4c(cc(OC)c(OC)c4c2cc1OC)CCN3C(=O)OCCN1CCNCC1
inactive: LXFL 529 15.1 µM | A498 14.6 µM | MOLT-4 16.1 µM | COLO 205 8.22 µM | HCT-116 11.9 µM | UO-31 14.9 µM | ACHN 15.1 µM | NCI-H23 17.4 µM | SN12C 15.9 µM | SF-268 11.1 µM | RPMI-8226 14.1 µM | HL-60 13.2 µM | HCC 2998 16.1 µM | SW-620 14.9 µM | SK-MEL-28 18.5 µM | NCI-H460 13.5 µM | A549 18.5 µM

COC(=O)c1c2c(c(-c3ccccc3)c3c1-c1nc(Cl)ccc1CC3)CCc1ccc(Cl)nc1-2
inactive: LXFL 529 > 100 µM | A498 > 100 µM | MOLT-4 > 100 µM | COLO 205 > 100 µM | HCT-116 77.6 µM | UO-31 > 100 µM | ACHN > 100 µM | NCI-H23 > 100 µM | SN12C > 100 µM | SF-268 78.5 µM | RPMI-8226 > 100 µM | HL-60 > 100 µM | HCC 2998 > 100 µM | SW-620 > 100 µM | SK-MEL-28 > 100 µM | NCI-H460 70.6 µM | A549 > 100 µM

CN/N=C(/CCN1CCCC1)CC(c1ccccc1)c1c(O)c2ccccc2oc1=O (stereo not given)
inactive: LXFL 529 > 100 µM | A498 > 100 µM | MOLT-4 > 65.3 µM | COLO 205 34.9 µM | HCT-116 > 100 µM | UO-31 > 67.1 µM | ACHN > 100 µM | DU-145 > 100 µM | Hs-578T > 100 µM | NCI-H23 > 96.4 µM | MDA-MB-231 > 100 µM | SN12C > 100 µM | SF-268 > 100 µM | RPMI-8226 25.5 µM | HL-60 61.5 µM | HCC 2998 > 100 µM | SW-620 > 100 µM | SK-MEL-28 > 100 µM | NCI-H460 > 100 µM | A549 > 100 µM

Cc1cccc(C)c1NC(=O)CCCC(=O)C1CCC/C1=N\NC(=O)C(=O)NN (stereo not given)
inactive: LXFL 529 > 100 µM | A498 > 100 µM | MOLT-4 > 100 µM | COLO 205 > 100 µM | HCT-116 > 100 µM | UO-31 > 100 µM | ACHN > 100 µM | NCI-H23 > 100 µM | SN12C > 100 µM | SF-268 > 100 µM | RPMI-8226 > 100 µM | HL-60 > 100 µM | HCC 2998 > 100 µM | SW-620 > 100 µM | SK-MEL-28 > 100 µM | NCI-H460 > 100 µM | A549 > 100 µM

C=CN1C(=O)OC[C@@H]1c1ccccc1
inactive: LXFL 529 > 100 µM | A498 > 100 µM | MOLT-4 > 100 µM | COLO 205 > 100 µM | HCT-116 83.2 µM | UO-31 > 100 µM | ACHN > 100 µM | NCI-H23 > 100 µM | SN12C > 100 µM | SF-268 > 100 µM | RPMI-8226 34.3 µM | HL-60 > 100 µM | HCC 2998 > 100 µM | SW-620 19.1 µM | SK-MEL-28 > 100 µM | NCI-H460 > 100 µM | A549 > 100 µM

COc1ccccc1C1c2cc3c(cc2OC(O)(CO)C1C(=O)O)OCO3.COc1ccccc1C1c2cc3c(cc2OC2(O)COC(=O)C12)OCO3 (stereo not given)
inactive: LXFL 529 > 100 µM | A498 > 100 µM | MOLT-4 70 µM | COLO 205 > 100 µM | HCT-116 > 100 µM | UO-31 > 100 µM | ACHN > 100 µM | NCI-H23 > 100 µM | SN12C > 100 µM | SF-268 > 100 µM | RPMI-8226 > 100 µM | HL-60 95.1 µM | HCC 2998 > 100 µM | SW-620 > 100 µM | SK-MEL-28 > 100 µM | NCI-H460 > 100 µM | A549 > 100 µM

CCOC(=O)/C=C/c1ccccn1
inactive: LXFL 529 > 100 µM | A498 > 100 µM | MOLT-4 > 100 µM | COLO 205 > 100 µM | HCT-116 > 100 µM | UO-31 > 100 µM | ACHN > 100 µM | NCI-H23 > 100 µM | SN12C > 100 µM | SF-268 > 100 µM | RPMI-8226 > 100 µM | HL-60 > 100 µM | HCC 2998 > 100 µM | SW-620 > 100 µM | SK-MEL-28 > 100 µM | NCI-H460 > 100 µM | A549 > 100 µM
